Laboratory results: patent US20250382256A1, “DICARBOXYLIC ACID DIESTERS” (DSM IP Assets B.V., priority 2018, published 2025)
Counter-ions that a name gives are not always drawn. Like-named read-outs stand apart in the source and are kept apart here.

Assays:
rumen liquor = assay: In vitro test for methane production (modified Hohenheim Forage value Test, HFT); assay type: cell-based; details: read-out: Methane inhibition
Procedure: A modified version of the “Hohenheim Forage value Test (HFT)” was used for testing the effect of specific compounds on the rumen functions mimicked by this in-vitro system. Principle: Feed (i.e. a TMR) (300 mg) is given into a syringe with a composition of rumen liquor and an appropriate mixture of buffers (i.e. rumen-fluid buffer mix: 25 ml) and the substances to be tested in the concentrations as outlined in table 2 (the inhibitors to be tested are diluted in ethanol to reach the respective concentration of dry matter in 50 μl). The solution is incubated at 39° C. for 8 h. The quantity of produced gas is measured and put into a formula for conversion. After the incubation the composition of gas is measured with a GC. TMR (44% concentrate, 6% hay, 37% maize silage and 13% grass silage) is sieved to 1 mm and weighed exactly into the syringes. One run contains 4 repetitions, each with 16 syringes and comprises substrate controls, which display the gas production without the effect of the tested compounds, carrier controls, which display the gas production in the presence of the carrier (solvent) only (i.e. EtOH used to dissolve the test compounds), and test samples (in the carrier), which contain the test substances in varying concentrations as outlined in table 2. The components are mixed in a Woulff bottle in following order: • 711 ml water • 0.18 ml trace element solution • 355.5 ml buffer solution • 355.5 ml mass element solution The completed solution is warmed up to 39° C. followed by the addition of 1.83 ml sodium salt solution and the addition of reduction solution at 36° C. The rumen liquor (750 ml) is added, when the indicator turns colorless under continued agitation and CO2-gassing. The rumen-fluid-buffer-mix is added to the glass syringe prepared as outlined above containing the TMR and the active to be tested. The syringes are then incubated for 8 hours at 39° C. under gentle agitation. After 8 the volume of gas produced is measured, and the percentage of methane in the gas phase is determined by gas chromatography.

[1] = Vapor pressure of the purified diester; assay type: physicochemical; details: purified product

For `O=C(CC(=O)OCCCO[N+](=O)[O-])OCCCO[N+](=O)[O-]` [(I-a), bis(3-(nitrooxy)propyl) malonate], which inhibition at 2.5 µM (rumen liquor; 8 h) is on record?
Its inhibition at 2.5 µM is 72%.

What about the inhibition at 5 µM (rumen liquor; 8 h) of the same molecule?
The inhibition at 5 µM was 97%.

And the inhibition at 10 µM (rumen liquor; 8 h)?
The inhibition at 10 µM was 99%.

And the vapor pressure [1]?
The vapor pressure was 0.00133 mbar.

Which results are given for `O=C(/C=C/C(=O)OCCCO[N+](=O)[O-])OCCCO[N+](=O)[O-]` [(I-b), bis(3-(nitrooxy)propyl) fumarate]?
inhibition at 5 µM (rumen liquor; 8 h): 96%; inhibition at 10 µM (rumen liquor; 8 h): 99%; vapor pressure [1]: 0.00133 mbar

Which inhibition at 2.5 µM (rumen liquor; 2.5 μmol/l, 8 h at 39° C., TMR in rumen-fluid buffer mix, reduction versus substrate control) does the source give for `O=[N+]([O-])OCCCO` [Ref, 3-nitrooxypropanol, reference compound] here?
The inhibition at 2.5 µM was 32%.

What about the inhibition at 5 µM (rumen liquor; 5 μmol/l, 8 h at 39° C., TMR in rumen-fluid buffer mix, reduction versus substrate control) of the same molecule?
The inhibition at 5 µM was 86%.

What about the inhibition at 10 µM (rumen liquor; 10 μmol/l, 8 h at 39° C., TMR in rumen-fluid buffer mix, reduction versus substrate control) of the same molecule?
The inhibition at 10 µM was 99%.

What does the source list for `O=C(CCC(=O)OCCCO[N+](=O)[O-])OCCCO[N+](=O)[O-]` [(I-c), bis(3-(nitrooxy)propyl) succinate]?
inhibition at 10 µM (rumen liquor; 8 h): 99%; vapor pressure [1]: 0.00133 mbar
